We go through one molecule from publication PMC6240685, “Strong Inhibitory Effect, Low Cytotoxicity and High Plasma Stability of Steroidal Inhibitors of N-Methyl-D-Aspartate Receptors With C-3 Amide Structural Motif” (Frontiers in Pharmacology, 2018).

Experiment [1] deals with GABARs. The experiment can be described thus: Inhibition of native GABAR responses in cultured hippocampal neurons. Format: cell-based, rat. How it is done:
FIGURE 8 The effect of compound 6 on peak and steady-state responses of native NMDARs, AMPARs, and GABARs. (A) Examples of traces obtained from cultured hippocampal neurons. Compound 6 (10 μM) was pre-applied in the absence of agonists followed by co-application with NMDA (100 μM), AMPA (100 μM), and GABA (5 μM) (duration of agonist and steroid application is indicated by filled and open bars, respectively). (B) Bar graph represents the mean values of relative changes in the peak (black columns) and steady-state (red columns) responses of native NMDARs, AMPARs, and GABARs recorded in the continuous presence of 10 μM compound 6. Error bars represent SD from five independent measurements. Asterisks mark significance at the level of P < 0.05 (Paired t-test). […]
Electrophysiological experiments were performed on HEK293 cells transfected with plasmids encoding rat GluN1-1a/GluN2A-D and GFP genes as described previously, ([Petrovic et al., 2005]; [Cais et al., 2008]; [Korinek et al., 2010]) or on primary hippocampal neurons prepared from P0–P1 rats, plated on collagen/poly-D-lysine-coated glass coverslips at a density of ∼50,000 cells/cm^2, and grown in Neurobasal A medium with B27 Supplement (Gibco). […] Agonist-induced responses were low-pass filtered at 2 kHz, digitally sampled at 5 kHz, and analyzed with pClamp software version 10.5 (Molecular Devices). […]

The test system of experiment [2] is HepG2 cells. Put plainly: ROS induction (CM-H2DCFDA). Type of experiment: cell-based. The note with it: Homo sapiens, HepG2, 72 h; read-out: ROS induction EC50. How it is done:
(A) Hepatotoxicity provoked by compound 4 was assessed after 72 h incubation of HepG2 cells in low glucose medium (5 mM) in the presence of compound 4 (0.25–100 μM). (B) Mitochondrial toxicity was determined after 24 h incubation of HepG2 cells in either high glucose medium (25 mM) or galactose medium (10 mM) in the presence of compound 4 (2.5–150 μM). Cell viabilities were recorded in triplicates in three independent experiments and expressed as percentage of vehicle control ± SD and IC50 values were determined by GraphPad Prism software using following equation: Y = Bottom + (Top–Bottom)/(1 + 10ˆ((LogIC50-X)^∗HillSlope)), where IC50 is the concentration of compound 4 that inhibits cell viability half way between Bottom and Top plateaus, X is compound 4 concentration and HillSlope describes the steepness of the family of curves. […] (C) Concentration-dependent effect on ROS level. HepG2 cells were treated with compound 4 (0.25–100 μM) for 72 h, and then the intracellular level of total ROS in relative fluorescence units (RFU) was detected. The data are presented as the mean ± SD for at least three independent experiments and each experiment was carried out in triplicate. Final concentration of DMSO in samples was 1%. […] Single asterisks (^∗) indicate a significant difference (P < 0.05) compared to 1% DMSO control (one-way ANOVA with Dunnett’s post-test).
The effect of neurosteroids on oxidative stress was determined using general oxidative stress indicator CM-H2DCFDA (Thermo Fisher Scientific, Waltham, MA, United States) according to the manufacturer’s instructions. Briefly HepG2 cells were seeded in a 96-well plate at a density of 13,500 cells per well. After 24 h, the tested neurosteroids were added to the culture media and incubated for 72 h. Subsequently, cells were washed with HBSS, treated with 100 μL of 1 μM CM-H2DCF-DA solution in HBSS and incubated for 1 h in the dark at 37°C. Finally, cells were washed three times with HBSS and the fluorescence was measured using 495 excitation and 527 emission in fluorescence microplate reader (Cytation 3, Winooski, VT, United States). IC50 index values were determined by GraphPad Prism version 5.00 for Windows (GraphPad Software, La Jolla, CA, United States).

For orientation: IC50 means the concentration that gives 50% inhibition. As a reminder, the EC50 is the midpoint of the concentration-response curve. In turn, `C[C@@]12CCC[C@H]1[C@@H]1CC[C@@H]3C[C@H](NC(=O)[C@@H](N)CC(=O)O)CC[C@]3(C)[C@H]1CC2` [Compound 6, (S)-3-amino-4-(((3R,5R,8S,9S,10S,13S,14S)-10,13-dimethylhexadecahydro-1H-cyclopenta[a]phenanthren-3-yl)amino)-4-oxobutanoic acid] came in with an IC50 in experiment [1] (5 μM GABA, hippocampal neurons) of 17 ± 0.2 µM. Also, in experiment [1] (10 μM compound present continuously, GABA 5 μM), the “inhibition of steady-state vs peak response, GABARs” value is “more efficient inhibitor of tonically activated receptors at the steady–state”. Further, the EC50 in experiment [2] was more than 200 µM.
